Results reported in PubChem BioAssay (NCI).
“And” between values parts separate entries of the source, which are not always exact repeats. Equal entries are not always repeated.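 Tested at 5 concentrations; 48 h exposure; 96-well plates; endpoints linearly interpolated, else capped at highest concentration. GI50 is the concentration that inhibits growth by half. Definition used: TGI = concentration required for complete inhibition of growth.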

system: MDA-MB-468 breast; assay: NCI anticancer screen, dose series, 48 h

First: O=C(Nc1cccc(-n2cc(-c3ccncc3)c(-c3cc(O)cc(Cl)c3)n2)c1)Nc1ccc(Cl)c(C(F)(F)F)c1
Second: O=C(Nc1cccc(-n2cc(-c3ccncc3)c(-c3ccc(Cl)c(O)c3)n2)c1)c1ccc(N2CCOCC2)c(C(F)(F)F)c1
The GI50 of the first is 3.4-fold lower: 2.08 µM for the first, 7.04 µM for the second.

First: CCCCC[C@H]1C/C=C2/C(=O)C=C[C@@H]2C/C=C\CCCC(=O)O[C@@H](CCCCC)C/C=C2/C(=O)C=C[C@@H]2C/C=C\CCCC(=O)O1
Second: CCOC(=O)c1cc2c(n1Cc1cccc(OC)c1)-c1oncc1CCC2
The GI50 of the first is 2-fold lower: 0.371 µM for the first, 0.732 µM for the second.

CC(=O)OC[C@]12CC[C@@H](C(=O)CBr)[C@@H]1[C@H]1CC[C@@H]3[C@@]4(C)CCCNC(C)(C)[C@@H]4CC[C@@]3(C)[C@]1(C)CC2 and C=C1/C(=C\C=C2/CCC[C@]3(C)[C@@H]([C@H](C)CCCC(C)(C)O)CC[C@@H]23)C[C@@H](OC(=O)CBr)C[C@@H]1O are within 1.5-fold of each other in GI50: 2.12 µM for the first, 2.56 µM for the second.

O=C1c2cccc(NCCN=Cc3cc([N+](=O)[O-])ccc3O)c2C(=O)c2c(NCCN=Cc3cc([N+](=O)[O-])ccc3O)cccc21 and Cc1cc(O)c(C2=NN(c3ccc(S(N)(=O)=O)cc3)C(c3ccccc3Cl)C2)cc1Cl (stereo not drawn) are within 1.5-fold of each other in GI50: 1.86 µM for the first, 2.22 µM for the second.

CN(C)C(=S)/N=c1\ssc(=S)n1Cc1cccnc1 and COc1cccc(-n2nc(C)c3c(N/N=C(\C)c4ccncc4)ncnc32)c1 are within 1.5-fold of each other in GI50: 3.07 µM for the first, 2.67 µM for the second.

O=C1NC(=C(Cl)Cl)/C(=N/S(=O)(=O)N2CCCCC2CC2(C(F)(F)F)N=N2)N1 (stereo not drawn) and CCn1cc(C(=O)N/N=C/c2ccccc2)c(=O)c2cc(F)c(N3CCNC(C)C3)c(F)c21 (stereo not drawn) are within 1.5-fold of each other in GI50: 1.16 µM for the first, 1.62 µM for the second.

CCN(Cc1ccc(F)cc1)c1ccc(CO)c(F)c1 and COc1cccc2c1ccc1nc3cccc(C(=O)N[C@H](C)CN(C)C)c3nc12 are within 1.5-fold of each other in GI50: 0.167 µM for the first, 0.12 µM for the second.

First: CNC(=O)c1cccc2cc(Oc3ccnc4cc(OCC5(N)CC5)c(OC)cc34)ccc12
Second: COc1ccc(-c2cc(-c3cccc4ccccc34)n3c(n2)nc2ccccc23)cc1OC
The GI50 of the first is 2.7-fold higher: 7.41 µM for the first, 2.7 µM for the second.

Going from COc1ccc(C2CC(C)(O)Oc3cc4c(cc32)OCO4)cc1 (stereo not drawn) to COc1ccc(C(=O)/C=C/c2cccc([N+](=O)[O-])c2)c(OC)c1, the GI50 falls from 18.9 µM to 1.09 µM (17-fold).

Compared with Nc1nc(N)c2nc(CNc3ccc(C(=O)NC(CC(=O)O)C(=O)O)cc3)cnc2n1 (stereo not drawn), CC1(N)CCN(c2cccnc2NC(=O)c2nc(-c3ncccc3C(F)(F)F)cnc2N)CC1 is 10-fold higher in GI50: 1.37 µM for the first, 14.1 µM for the second.

First: CC(=O)C(=Cc1ccc(C=C(C(C)=O)C(C)=O)cc1)C(C)=O
Second: COc1cccc(C2=C(c3c(C)n(C)c4ccccc34)C(=O)NC2=O)c1
The GI50 of the first is 5.1-fold lower: 1.51 µM for the first, 7.67 µM for the second.

First: Cc1cc(NCCN(C(C)C)C(C)C)nc(/N=C(\N)Nc2ccc(Cl)c(C(F)(F)F)c2)n1
Second: COc1ccc(-c2nc(/C=N/Nc3cc(C)nc4ccc(Cl)cc34)c(C)o2)cc1
The GI50 of the first is 8.4-fold lower: 0.229 µM for the first, 1.93 µM for the second.

First: O=c1ccn(C2CC(O)C(CO)O2)c(=O)[nH]1 (stereo not drawn)
Second: O=C1C(N2CC2)=C(N2CC2)C(=O)C(N2CC2)=C1N1CC1
The GI50 of the first is higher: > 5000 µM for the first, 0.395 µM for the second.

Going from O=C(Nc1cccc(-n2cc(-c3ccncc3)c(-c3cc(O)cc(Cl)c3)n2)c1)Nc1ccc(Cl)c(C(F)(F)F)c1 to O=C(Nc1cccc(-n2cc(-c3ccncc3)c(-c3ccc(Cl)c(O)c3)n2)c1)c1ccc(N2CCOCC2)c(C(F)(F)F)c1, the TGI rises from 8.42 µM to 26.6 µM (3.2-fold).

Compared with CCCCC[C@H]1C/C=C2/C(=O)C=C[C@@H]2C/C=C\CCCC(=O)O[C@@H](CCCCC)C/C=C2/C(=O)C=C[C@@H]2C/C=C\CCCC(=O)O1, CCOC(=O)c1cc2c(n1Cc1cccc(OC)c1)-c1oncc1CCC2 is higher in TGI: 1.01 µM for the first, > 82.8 µM for the second.

CC(=O)OC[C@]12CC[C@@H](C(=O)CBr)[C@@H]1[C@H]1CC[C@@H]3[C@@]4(C)CCCNC(C)(C)[C@@H]4CC[C@@]3(C)[C@]1(C)CC2 and C=C1/C(=C\C=C2/CCC[C@]3(C)[C@@H]([C@H](C)CCCC(C)(C)O)CC[C@@H]23)C[C@@H](OC(=O)CBr)C[C@@H]1O are within 1.5-fold of each other in TGI: 5.66 µM for the first, 7.74 µM for the second.

First: O=C1c2cccc(NCCN=Cc3cc([N+](=O)[O-])ccc3O)c2C(=O)c2c(NCCN=Cc3cc([N+](=O)[O-])ccc3O)cccc21
Second: Cc1cc(O)c(C2=NN(c3ccc(S(N)(=O)=O)cc3)C(c3ccccc3Cl)C2)cc1Cl (stereo not drawn)
The TGI of the first is 4.2-fold higher: 20.1 µM for the first, 4.74 µM for the second.

CN(C)C(=S)/N=c1\ssc(=S)n1Cc1cccnc1 and COc1cccc(-n2nc(C)c3c(N/N=C(\C)c4ccncc4)ncnc32)c1 cannot be ordered by TGI: > 100 µM for the first, > 25 µM for the second.

O=C1NC(=C(Cl)Cl)/C(=N/S(=O)(=O)N2CCCCC2CC2(C(F)(F)F)N=N2)N1 (stereo not drawn) and CCn1cc(C(=O)N/N=C/c2ccccc2)c(=O)c2cc(F)c(N3CCNC(C)C3)c(F)c21 (stereo not drawn) are within 1.5-fold of each other in TGI: 3.91 µM for the first, 3.12 µM for the second.

CCN(Cc1ccc(F)cc1)c1ccc(CO)c(F)c1 and COc1cccc2c1ccc1nc3cccc(C(=O)N[C@H](C)CN(C)C)c3nc12 are within 1.5-fold of each other in TGI: 0.461 µM for the first, 0.485 µM for the second.

Going from CNC(=O)c1cccc2cc(Oc3ccnc4cc(OCC5(N)CC5)c(OC)cc34)ccc12 to COc1ccc(-c2cc(-c3cccc4ccccc34)n3c(n2)nc2ccccc23)cc1OC, the TGI rises from 22.6 µM to > 100 µM.

Compared with COc1ccc(C2CC(C)(O)Oc3cc4c(cc32)OCO4)cc1 (stereo not drawn), COc1ccc(C(=O)/C=C/c2cccc([N+](=O)[O-])c2)c(OC)c1 is 19-fold lower in TGI: 55.7 µM for the first, 3 µM for the second.

Going from Nc1nc(N)c2nc(CNc3ccc(C(=O)NC(CC(=O)O)C(=O)O)cc3)cnc2n1 (stereo not drawn) to CC1(N)CCN(c2cccnc2NC(=O)c2nc(-c3ncccc3C(F)(F)F)cnc2N)CC1, the TGI falls from > 100 µM to 52.8 µM.

Going from CC(=O)C(=Cc1ccc(C=C(C(C)=O)C(C)=O)cc1)C(C)=O to COc1cccc(C2=C(c3c(C)n(C)c4ccccc34)C(=O)NC2=O)c1, the TGI rises from 3.14 µM to > 25 µM.

Compared with Cc1cc(NCCN(C(C)C)C(C)C)nc(/N=C(\N)Nc2ccc(Cl)c(C(F)(F)F)c2)n1, COc1ccc(-c2nc(/C=N/Nc3cc(C)nc4ccc(Cl)cc34)c(C)o2)cc1 is 6.2-fold higher in TGI: 0.595 µM for the first, 3.71 µM for the second.

First: O=c1ccn(C2CC(O)C(CO)O2)c(=O)[nH]1 (stereo not drawn)
Second: O=C1C(N2CC2)=C(N2CC2)C(=O)C(N2CC2)=C1N1CC1
The TGI of the first is higher: > 5000 µM for the first, 2.44 µM for the second.

In the case of COc1ccc2c(c1)nnn1c3ncccc3c(N=O)c21, the GI50 is reported as 0.0323 µM and 0.126 µM.
